Patent US8957238B2, “Process for preparing malathion for pharmaceutical use” (priority 2005, dated 2015)

Assay: Storage stability of malathion prepared by the process of the invention, HPLC after storage (Example 7, Table IV)
Assay type: physicochemical
Description: The malathion prepared by the process of the invention was tested for storage stability. Malathion prepared by the process of the invention was stored under a variety of different temperature and humidity conditions for up to three (3) months. […] The purity of the sample was determined after storage using HPLC.
Table IV presents the analytical data showing storage of two, different batches of malathion after storage under a variety of different conditions.
MeOOSPO, MeOSSPO, malaxon, MeOOSPS, diethyl fumarate, dimethyl malathion, methyl malathion, O,O-methyl, ethyl S-(1,2-dicarboethoxy)ethyl phosphorodithioate, tetraethyl dithiosuccinate, isomalathion, malathion carboxylic acids, mercaptosuccinate and the tetraethyl thiodisuccinate were assayed for by HPLC. The mobile phase was a mixture of water, acetonitrile and methanol (480:370:150) and one drop of 85% phosphoric acid for each […] of mobile phase. Method validation was performed and system reproducibility, linearity, repeatability, intermediate precision, recovery of related compounds and sensitivity were assessed according to standard methology (U.S. Pharmacopeia, 2004, U.S. Pharmacopeial Convention, Inc., 12601 Twinbrook Parkway, Rockville, Md. 20852). If necessary, the mobile phase composition and/or flow rate were adjusted to meet the chromatographic parameters.

Measured: Malathion Purity

CCOC(=O)CC(SP(=S)(OC)OC)C(=O)OCC (stereo not drawn) [malathion prepared by the process of the invention] [[(dimethoxyphosphinothioyl)thio]butanedioic acid diethyl ester]
greater than 98.5 % (w/w): Storage at 5° C. for 3 months | Storage at 25° C., 60% relative humidity for 3 months | Storage at 30° C. and 60% relative humidity for 3 months
